{"source": "paper PMC6478789", "about": "“A chemical toolbox for the study of bromodomains and epigenetic signaling” (Nature Communications, 2019)", "key": {"[1]": {"test_system": "MDA-MB-436 cells", "test": "Glucose uptake assay", "assay_type": "cell-based, human", "conditions": "3 µM BAY-876, 5 days", "method": "Glucose uptake was assayed according to the established protocol from a commercial glucose uptake kit (ab136955; Abcam). In brief, MDA-MB-436 cells were seeded in six-well plates followed by overnight incubation. The next day cells were treated with DMSO or indicated concentration of BAY-876. After 5 days, cells were washed three times with cold phosphate-buffered saline (PBS) and lysed with extraction buffer, frozen at −80 °C for 10 min and heated at 85 °C for 40 min. After cooling on ice for 5 min, the lysates were neutralized by adding neutralization buffer and centrifuged. The remaining lysate was then diluted with assay buffer. Finally, the colorimetric endproduct generation was set up by two amplification steps according to the manufacturer’s instructions in the kit and then detected at 412 nm using iMark microplate reader (Bio-Rad)."}, "[2]": {"test_system": "MDA-MB-436 cells", "test": "NAD+/NADH ratio measurement assay", "assay_type": "cell-based, human", "conditions": "BAY-876, 5 days", "method": "Cells were seeded in six-well plates followed by overnight incubation. The next day, cells were treated with DMSO or the indicated concentration of BAY-876. After 5 days, cells were lysed, and intracellular metabolites were measured using commercial kits detecting acetyl-CoA (PicoProbe, Abcam ab87546) and NAD^+/NADH ratio (Abcam 65348)."}, "[3]": {"test_system": "MDA-MB-436 cells", "test": "Immunoblot of H3 and H4 acetylation", "assay_type": "cell-based, human", "conditions": "BAY-876 treatment", "method": "Total cell lysates were resolved in 4−12% Bis-Tris protein gels (Invitrogen) with MOPS (3-(N-morpholino)propanesulfonic acid) buffer (Invitrogen) and transferred for 1.5 h (80 V) onto polyvinylidene fluoride membrane (Millipore) in Tris-glycine transfer buffer containing 20% MeOH and 0.05% sodium dodecyl sulfate. Blots were blocked for 1 h in blocking buffer (5% milk in 0.1% Tween-20 PBS) and incubated with primary antibodies: anti-ac-H3 (1:2000, ab47915); anti-ac-H4 (1:2000; ab177790); anti-H3 (1:2000; ab1791); anti-H4 (1:2000; ab10158); anti-H3K14ac (1:4000; ab52946); anit-BRPF1 (1:1000; Thermo Fisher); anti-BRPF2 (1:2000; ab71877) in blocking buffer overnight at 4 °C. After five washes with 0.1% Tween-20 PBS the blots were incubated with goat-anti-rabbit (IR800 conjugated, LiCor no. 926-32211) and donkey anti-mouse (IR 680, LiCor no. 926-68072) antibodies (1:5000) in Odyssey blocking buffer (LiCor) for 1 h at room temperature and washed five times with 0.1% Tween-20 PBS. The signal was read on an Odyssey scanner (LiCor) at 800 and 700 nm."}, "[4]": {"biological_target": "T1, GCN5L2 (Homo sapiens, UniProt Q92830)", "T1 sequence (Q92830 728-832 limits assumed)": "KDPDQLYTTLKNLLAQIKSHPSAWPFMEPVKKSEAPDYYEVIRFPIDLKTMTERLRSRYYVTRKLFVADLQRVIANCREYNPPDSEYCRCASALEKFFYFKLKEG", "parameters": "purchased; method as in ref 2 (suppl.), 26 (main text)", "conditions": "BROMOscan; ref 2 (suppl.), 26; read-out: KD (nM), GCN5; cited from earlier work"}, "[5]": {"biological_target": "GCN5", "parameters": "method as in ref 1 (suppl.), 25 (main text)", "conditions": "ITC data; ref 1 (suppl.), 25; cited from earlier work"}, "[6]": {"test_system": "TNBC cell lines", "test": "OF-1 IC50 in glucose deprivation media", "assay_type": "cell-based, human", "conditions": "7 days", "source_text": "Graph indicates mean, error bars denote s.d. from eight wells (from two independent assays) and p-value was computed using the Benjamini-Hochberg t test; ***p < 0.001. d Immunoblot validation of BRPF knockdown in MDA-MB-436 cells. e Quantitative real-time PCR (RT-qPCR) validation of BRPF knockdown in MDA-MB-436 cells. […] Raw data images are available in Supplementary Fig. 4 […]\nWood & Pier Lorenzo Puri Scientific Reports volume 7, Article number: 6153 (2017)) as well as the role of the BET proteins in muscle differentiation (Roberts et al, Scientific reports 2017: BRD3 and BRD4 BET Bromodomain Proteins Differentially Regulate Skeletal Myogenesis). […]\nAdditional minor comment: The writing in the figure is often not readable (very low resolution) […]\nwith 0.1% DMSO (vol/vol). Cell viability at 7 days was evaluated using Incucyte ZOOM live cell imaging device (Essen Bioscence) and analyzed with Incucyte ZOOM (2016A) software based […]\nIn this study, Wu and colleagues report on characterization and possible applications of a set of 25 inhibitors for bromodomain. The authors evaluated selectivities of these inhibitors by measuring Kds for the interactions with a large number of bromodomains using ITC and BROMOscan. […]"}}}
{"smiles": "Cc1c(NC(=O)c2cc(C(N)=O)nc3cc(F)ccc23)c(C(F)(F)F)nn1Cc1ccc(C#N)cc1", "note": "[BAY-876]", "values": [{"measurement": "glucose uptake", "setting": "[1]", "value": "inhibits glucose uptake"}, {"measurement": "NAD+/NADH ratio", "setting": "[2]", "value": "increase"}, {"measurement": "global levels of acetylated histone H3 (ac-H3)", "setting": "[3]", "value": "reduction"}]}
{"smiles": "CN1C[C@H](Nc2cnn(C)c(=O)c2Br)C[C@H](c2ccccc2)C1", "note": "[GSK4027]", "values": [{"measurement": "Kd", "setting": "[4]", "value": 1.4, "unit": "nM"}]}
{"smiles": "Cc1nnc2c3ccccc3c(N[C@@H](C)[C@H](c3ccccc3)N(C)C)nn12", "note": "[L-Moses]", "values": [{"measurement": "Kd", "setting": "[5]", "value": 600, "unit": "nM"}]}
{"smiles": "COc1cc2c(cc1NS(=O)(=O)c1ccc(Br)cc1C)n(C)c(=O)n2C", "note": "[OF-1]", "values": [{"measurement": "OF-1 sensitivity", "setting": "[6]", "value": "increase of OF-1 sensitivity"}]}
